The source of these data is ChEMBL document CHEMBL1144037, “Structural requirements for the stability of novel cephalosporins to AmpC beta-lactamase based on 3D-structure” (2008).

Values after ≈ are worked out from the molar mass of the structure shown.

Type in all cases: functional
Test [1] concerns Pseudomonas aeruginosa. The experiment in a line: Antibacterial activity against Pseudomonas aeruginosa PAO1 after 18 hrs by agar dilution method. The conditions noted are these: PAO1, 18 h. (In agar dilution, organisms are placed on agar that contains the substance at set levels.)
Test [2] has as its system Pseudomonas aeruginosa. The experiment in a line: Antibacterial activity against Pseudomonas aeruginosa PAO1 ampD-deffective mutant after 18 hrs by agar dilution method. The conditions noted are these: PAO1, 18 h.
For test [3], the system named is Pseudomonas aeruginosa. The experiment in a line: Antibacterial activity against Pseudomonas aeruginosa FP1380 after 18 hrs by agar dilution method. The settings on record: FP1380, 18 h.

The MIC is the least concentration at which growth counts as inhibited. Consider `Cn1c(CCN)cc[n+]1CC1=C(C(=O)[O-])N2C(=O)[C@@H](NC(=O)/C(=N\OC(C)(C)C(=O)O)c3nsc(N)n3)[C@H]2SC1.O=S(=O)(O)O`, for which the MIC in test [1] was 1 µg/mL; in test [2], 0.5 µg/mL.

On to `Cn1c(N)c(CCCCCN)c[n+]1CC1=C(C(=O)[O-])N2C(=O)[C@@H](NC(=O)/C(=N\OC(C)(C)C(=O)O)c3nsc(N)n3)[C@H]2SC1`, for which the minimum inhibitory concentration (MIC) in test [1] came to 2 µg/mL (≈ 3.07 µM); in test [2] it was 1 µg/mL (≈ 1.54 µM).

With `CCCc1c[n+](CC2=C(C(=O)[O-])N3C(=O)[C@@H](NC(=O)/C(=N\OC(C)(C)C(=O)O)c4nsc(N)n4)[C@H]3SC2)n(C)c1N`, the MIC in test [1] turned out to be 2 µg/mL (≈ 3.29 µM); in test [2], 1 µg/mL (≈ 1.65 µM).

Consider `CC(C)(O/N=C(\C(=O)N[C@@H]1C(=O)N2C(C(=O)[O-])=C(C[n+]3ccc(N)n3CCO)CS[C@H]12)c1nsc(N)n1)C(=O)O.Cl`, for which the values for the MIC in test [3], in test [1] and in test [2] were 16 µg/mL, 0.5 µg/mL and 4 µg/mL, respectively.

With `Cn1c(N)c(CCCCN)c[n+]1CC1=C(C(=O)[O-])N2C(=O)[C@@H](NC(=O)/C(=N\OC(C)(C)C(=O)O)c3nsc(N)n3)[C@H]2SC1`, the MIC in test [1] was determined as 1 µg/mL (≈ 1.57 µM); in test [2], 0.5 µg/mL (≈ 0.785 µM).

Regarding `Cn1c(N)c(CN)c[n+]1CC1=C(C(=O)[O-])N2C(=O)[C@@H](NC(=O)/C(=N\OC(C)(C)C(=O)O)c3nsc(N)n3)[C@H]2SC1`, the MIC in test [1] was found to be 4 µg/mL (≈ 6.73 µM); in test [2] it was 0.5 µg/mL (≈ 0.841 µM).

For the compound `Cn1c(N)c(N)c[n+]1CC1=C(C(=O)[O-])N2C(=O)[C@@H](NC(=O)/C(=N\OC(C)(C)C(=O)O)c3nsc(N)n3)[C@H]2SC1`, the MIC in test [1] is 4 µg/mL (≈ 6.89 µM); in test [2], 0.5 µg/mL (≈ 0.861 µM).

`CC(C)(O/N=C(\C(=O)N[C@@H]1C(=O)N2C(C(=O)[O-])=C(C[n+]3ccccc3)CS[C@H]12)c1csc(N)n1)C(=O)O` [CEFTAZIDIME] showed an MIC in test [3] of 128 µg/mL (≈ 234 µM).
